According to patent US12246076B2, “Radiolabeled compounds for in vivo imaging of gastrin-releasing peptide receptor (GRPR) and treatment of GRPR-related disorders” (PROVINCIAL HEALTH SERVICES AUTHORITY, priority 2022, dated 2025):
Numbered stars: 1 amine (or outer) side, 2 acyl side, 3 side chain; on linkers, the order of the positions; unused ones are H or OH. Square brackets hold non-standard residues; d marks the D form. Peptide text beside a SMILES is read from it. * marks the point of attachment. DOTA = O=C(O)CN1CCN(CC(=O)O)CCN(CC(=O)*)CCN(CC(=O)O)CC1; Leuψ(CH2N)ThzNH2 = CC(C)C[C@@H](CN1CSC[C@H]1C(N)=O)N*; NMeH = CN[C@@H](Cc1c[nH]cn1)C(=O)O; X1 = O=C(CN1CCC(N[*:1])CC1)[*:2]; Tle = CC(C)(C)[C@H](N)C(=O)O; Thz = O=C(O)[C@@H]1CSCN1

Columns and labels:
GRPR = molecular target: T1, GRPR (Homo sapiens, UniProt P30550); experiment: In vitro competition binding assay, displacement of [^125I-Tyr^4]bombesin on GRPR-expressing PC-3 cells; settings: n = 2-3, read-out: Binding affinities Ki Mean
T1 construct: endogenous in cells; host or cells: PC-3 prostate cancer cells
T1 sequence (P30550 whole entry): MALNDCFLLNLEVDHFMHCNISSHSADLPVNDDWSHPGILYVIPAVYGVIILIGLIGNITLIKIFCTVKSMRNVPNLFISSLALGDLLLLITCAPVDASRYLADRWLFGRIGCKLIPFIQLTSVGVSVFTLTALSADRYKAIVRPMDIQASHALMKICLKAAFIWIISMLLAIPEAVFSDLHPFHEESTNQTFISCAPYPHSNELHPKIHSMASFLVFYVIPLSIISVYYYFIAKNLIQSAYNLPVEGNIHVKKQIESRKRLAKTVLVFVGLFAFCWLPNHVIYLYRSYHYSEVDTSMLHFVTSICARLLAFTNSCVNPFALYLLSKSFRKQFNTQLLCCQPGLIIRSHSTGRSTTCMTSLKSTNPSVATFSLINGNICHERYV
Method: PC-3 cells were seeded at 2×10^5 cells/well in 24-well poly-D-lysine plates 24-48 hours prior to the experiment. The growth medium was replaced by 400 μL of reaction medium (RPMI 1640 containing 2 mg/mL BSA, 4.8 mg/mL HEPES, 1 U/mL penicillin G and 1 μg/mL streptomycin). Cells were incubated for 30-60 min at 37° C. […] The cells were incubated with moderate agitation for 1 h at 27° C., washed twice with ice-cold PBS, harvested by trypsinization, and measured for radioactivity on the gamma counter. Data were analyzed using nonlinear regression (one binding site model for competition assay) with GraphPad Prism 8.
In vitro competition binding assays were performed according to the procedure outlined in Example 1.

in vivo = settings: male, NRG, mouse, iv, total radioactivity
Method: (§1) All imaging and biodistribution studies were performed using male NOD.Cg-Rag1^tm1MoM II2rg^tm1WI/SzJ (NRG) mice and conducted according to the guidelines established by the Canadian Council on Animal Care and approved by Animal Ethics Committee of the University of British Columbia. For tumor inoculations, mice were anesthetized by inhalation with 2% isoflurane in oxygen and implanted subcutaneously with 5×10^6 PC-3 cells below the left shoulder. Imaging and biodistribution studies were performed only after tumors grew to 5-8 mm in diameter.
(§2) For PET/CT imaging studies, ˜3-4 MBq of the ^68Ga-labeled tracer was injected through the tail vein. Mice were allowed to recover and roam freely in the cages after injecting the tracer. At 45 min post-injection (p.i.), mice were sedated again and positioned on the scanner. First, a 10 min CT scan was conducted for localization and attenuation correction for reconstruction of PET images, before a 10 min PET image was acquired. Heating pads were used during the entire procedure to keep the mice warm. For ex vivo biodistribution studies, mice were injected with ˜1.5-3 MBq of the ^68Ga-labeled tracer. At 1 h p.i., mice were euthanized, blood was drawn from heart, and organs/tissues of interest were collected, rinsed with PBS, blotted dry, weighed, and counted using an automated gamma counter. The uptake in each organ/tissue was normalized to the injected dose and expressed as the percentage of the injected dose per gram of tissue (% ID/g).
(§3) All imaging and biodistribution studies were performed using male NOD.Cg-Rag1tm1Mom II2rgtm1WjI/SzJ (NRG) mice and conducted according to the guidelines established by the Canadian Council on Animal Care and approved by Animal Ethics Committee of the University of British Columbia. For tumor inoculations, mice were anesthetized by inhalation with 2% isoflurane in oxygen and implanted subcutaneously with 5×10^6 PC-3 cells below the left shoulder. Imaging and biodistribution studies were performed only after tumors grew to 5-8 mm in diameter.
(§4) For PET/CT imaging studies, ˜5 MBq of the ^68Ga-labeled tracer was injected through the tail vein. Mice were allowed to recover and roam freely in the cages after injecting the tracer. At 45 min post-injection (p.i.), mice were sedated again and positioned on the scanner. First, a 10 min CT scan was conducted for localization and attenuation correction for reconstruction of PET images, before a 10 min PET image was acquired. Heating pads were used during the entire procedure to keep the mice warm. For ex vivo biodistribution studies, mice were injected with ˜3 MBq of the 68Ga-labeled tracer. At 1 h p.i., mice were euthanized, blood was drawn from heart, and organs/tissues of interest were collected, rinsed with PBS, blotted dry, weighed, and counted using an automated gamma counter.

[1] = Ex vivo biodistribution in PC-3 tumor-bearing mice; settings: male, NRG, mouse, iv, total radioactivity, 1 h post-injection, mice bearing PC-3 tumor xenografts, n = 4
Method: as §1, §2, §3, §4

[2] = Biodistribution Large Intestine Mean
[3] = Biodistribution Small Intestine Mean
[4] = PC-3 tumor, Biodistribution PC3 tumor Mean
[5] = seminal, Biodistribution Seminal Mean

SMILES | Ki (GRPR) | tissue uptake at 1 h (in vivo; Biodistribution Adrenal Mean) | tissue uptake at 1 h (in vivo; Biodistribution Blood Mean) | tissue uptake at 1 h (in vivo; Biodistribution Bone Mean) | tissue uptake at 1 h (in vivo; Biodistribution Brain Mean) | tissue uptake at 1 h (in vivo; Biodistribution Fat Mean) | tissue uptake at 1 h (in vivo; Biodistribution Heart Mean) | tissue uptake at 1 h (in vivo; Biodistribution Kidneys Mean) | tissue uptake at 1 h (in vivo; [2]) | tissue uptake at 1 h (in vivo; Biodistribution Liver Mean) | tissue uptake at 1 h (in vivo; Biodistribution Lungs Mean) | tissue uptake at 1 h (in vivo; Biodistribution Muscle Mean) | tissue uptake at 1 h (in vivo; [3]) | tissue uptake at 1 h (in vivo; Biodistribution Spleen Mean) | tissue uptake at 1 h (in vivo; Biodistribution Stomach Mean) | tissue uptake at 1 h (in vivo; Biodistribution Testes Mean) | tissue uptake at 1 h [1, 4] | tissue uptake at 1 h [1, 5] | other results
Cc1cccc2[nH]cc(C[C@H](NC(=O)[C@H](CCC(N)=O)NC(=O)[C@H](N)Cc3ccccc3)C(=O)N[C@@H](C)C(=O)N[C@H](C(=O)NCC(=O)N[C@@H](Cc3c[nH]cn3)C(=O)N[C@@H](CC(C)C)C(=O)N3CSC[C@H]3C(N)=O)C(C)C)c12 [LW01183] | 25.9 nM |  |  |  |  |  |  |  |  |  |  |  |  |  |  |  |  |  | 
Cc1cccc2c(C[C@H](NC(=O)[C@H](CCC(N)=O)NC(=O)[C@H](N)Cc3ccccc3)C(=O)N[C@@H](C)C(=O)N[C@H](C(=O)NCC(=O)N[C@@H](Cc3c[nH]cn3)C(=O)N[C@@H](CC(C)C)C(=O)N3CSC[C@H]3C(N)=O)C(C)C)c[nH]c12 [LW02007] | 13.5 nM |  |  |  |  |  |  |  |  |  |  |  |  |  |  |  |  |  | 
Cc1[nH]c2ccccc2c1C[C@H](NC(=O)[C@H](CCC(N)=O)NC(=O)[C@H](N)Cc1ccccc1)C(=O)N[C@@H](C)C(=O)N[C@H](C(=O)NCC(=O)N[C@@H](Cc1c[nH]cn1)C(=O)N[C@@H](CC(C)C)C(=O)N1CSC[C@H]1C(N)=O)C(C)C [LW02009, D-Phe-Gln-2-Me-Trp-Ala-Val-Gly-His-Leu-Thz-NH2] | 11.5 nM |  |  |  |  |  |  |  |  |  |  |  |  |  |  |  |  |  | 
CC(C)C[C@H](NC(=O)[C@H](Cc1c[nH]cn1)NC(=O)CNC(=O)[C@@H](NC(=O)[C@H](C)NC(=O)[C@H](Cc1c[nH]c2ncccc12)NC(=O)[C@H](CCC(N)=O)NC(=O)[C@H](N)Cc1ccccc1)C(C)C)C(=O)N1CSC[C@H]1C(N)=O [LW02013] | 166 nM |  |  |  |  |  |  |  |  |  |  |  |  |  |  |  |  |  | 
CC(C)C[C@H](NC(=O)[C@H](Cc1c[nH]cn1)NC(=O)CNC(=O)[C@@H](NC(=O)[C@H](C)NC(=O)[C@H](Cc1csc2ccccc12)NC(=O)[C@H](CCC(N)=O)NC(=O)[C@H](N)Cc1ccccc1)C(C)C)C(=O)N1CSC[C@H]1C(N)=O [LW02015] (HELM PEPTIDE1{[dF].Q.[O=C([C@H](Cc1csc2ccccc12)N[*:1])[*:2]].A.V.G.H.L.[O=C([C@@H]1CSCN1[*:1])[*:2]].[am]}$$$$V2.0) | 53.1 nM |  |  |  |  |  |  |  |  |  |  |  |  |  |  |  |  |  | 
CC(C)C[C@H](NC(=O)[C@H](Cc1c[nH]cn1)NC(=O)CNC(=O)[C@@H](NC(=O)[C@H](C)NC(=O)[C@H](Cc1c[nH]c2ccccc12)NC(=O)[C@H](CCC(N)=O)NC(=O)[C@H](N)Cc1ccccc1)C1CC1)C(=O)N1CSC[C@H]1C(N)=O [LW02016] | 202 nM |  |  |  |  |  |  |  |  |  |  |  |  |  |  |  |  |  | 
CC(C)C[C@H](NC(=O)[C@H](Cc1cnc[nH]1)N(C)C(=O)CNC(=O)[C@@H](NC(=O)[C@H](C)NC(=O)[C@H](Cc1c[nH]c2ccccc12)NC(=O)[C@H](CCC(N)=O)NC(=O)[C@@H](Cc1ccccc1)NC(=O)CN1CCC(NC(=O)CN2CCN(CC(=O)O)CCN(CC(=O)O)CCN(CC(=O)O)CC2)CC1)C(C)(C)C)C(=O)N1CSC[C@H]1C(N)=O [^68Ga-LW01110, metal not drawn] |  | 1.64 %ID/g | 0.69 %ID/g | 0.12 %ID/g | 0.03 %ID/g | 0.09 %ID/g | 0.23 %ID/g | 3.26 %ID/g | 1.27 %ID/g | 0.41 %ID/g | 0.59 %ID/g | 0.14 %ID/g | 2.11 %ID/g | 0.29 %ID/g | 0.94 %ID/g | 0.16 %ID/g | 16.6 %ID/g | 0.1 %ID/g | tissue uptake at 1 h (in vivo; Biodistribution Pancreas Mean): 8.99 %ID/g
CC(C)C[C@H](NC(=O)[C@H](Cc1cnc[nH]1)N(C)C(=O)CNC(=O)[C@@H](NC(=O)[C@H](C)NC(=O)[C@H](Cc1c[nH]c2ccccc12)NC(=O)[C@H](Cc1c[nH]cn1)NC(=O)[C@@H](Cc1ccccc1)NC(=O)CN1CCC(NC(=O)CN2CCN(CC(=O)O)CCN(CC(=O)O)CCN(CC(=O)O)CC2)CC1)C(C)(C)C)C(=O)N1CSC[C@H]1C(N)=O [^68Ga-LW01142, metal not drawn] ({DOTA}-[X1][dF]HWA[Tle]G[NMeH]L[Thz]-NH2) |  | 2.07 %ID/g | 6.88 %ID/g | 0.47 %ID/g | 0.15 %ID/g | 0.32 %ID/g | 1.62 %ID/g | 6.36 %ID/g | 1.07 %ID/g | 2.88 %ID/g | 4.59 %ID/g | 0.52 %ID/g | 1.7 %ID/g | 0.88 %ID/g | 0.98 %ID/g | 1.28 %ID/g | 11.4 %ID/g | 0.33 %ID/g | tissue uptake at 1 h (in vivo; Biodistribution Pancreas Mean): 4.4 %ID/g
CC(C)C[C@@H](CN1CSC[C@H]1C(N)=O)NC(=O)[C@H](Cc1c[nH]cn1)NC(=O)CNC(=O)[C@@H](NC(=O)[C@H](C)NC(=O)[C@H](Cc1c[nH]c2ccccc12)NC(=O)[C@H](CCC(N)=O)NC(=O)[C@@H](Cc1ccccc1)NC(=O)CN1CCC(NC(=O)CN2CCN(CC(=O)O)CCN(CC(=O)O)CCN(CC(=O)O)CC2)CC1)C(C)(C)C [^68Ga-LW01158, metal not drawn] ({DOTA}-[X1][dF]QWA[Tle]GH-{Leuψ(CH2N)ThzNH2}) |  | 1.37 %ID/g | 1.14 %ID/g | 0.13 %ID/g | 0.03 %ID/g | 0.07 %ID/g | 0.34 %ID/g | 2.98 %ID/g | 1.41 %ID/g | 4.33 %ID/g | 1.19 %ID/g | 0.2 %ID/g | 2.46 %ID/g | 0.6 %ID/g | 1.3 %ID/g | 0.24 %ID/g | 11.2 %ID/g | 0.15 %ID/g | tissue uptake at 1 h ([1]; pancreas, Biodistribution Pancreas Mean): 12 %ID/g
